Inconclusive results and toxic doses are left out. Rule as the data show it: active = T/C of 150% or more; inactive = T/C below 125%.
System: L1210 leukemia ip in BDF1 mice, survival T/C
Experiment: NCI In Vivo Anticancer Drug Screen. Data for tumor model L1210 Leukemia (intraperitoneal) in B6D2F1 (BDF1) mice
Settings: endpoint: mean survival time, higher = longer survival
In short: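 Antitumor effect is assessed in tumor-bearing animals. Survival in the compound arm is compared with a vehicle-dosed control arm and expressed as their quotient.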

[1] = dose: 100.0 mg/kg/injection, schedule: Q01DX001 (ip), vehicle: saline
[2] = dose: 200.0 mg/kg/injection, schedule: Q01DX001 (ip), vehicle: saline
[3] = dose: 400.0 mg/kg/injection, schedule: Q01DX001 (ip), vehicle: saline
[4] = dose: 100.0 mg/kg/injection, schedule: Q04DX002 (ip), vehicle: Klucel (hydroxypropylcellulose) (HPC)
[5] = dose: 200.0 mg/kg/injection, schedule: Q04DX002 (ip), vehicle: Klucel (hydroxypropylcellulose) (HPC)
[6] = dose: 50.0 mg/kg/injection, schedule: Q01DX009 (ip), vehicle: saline with Tween-80
[7] = dose: 100.0 mg/kg/injection, schedule: Q01DX009 (ip), vehicle: saline with Tween-80
[8] = dose: 200.0 mg/kg/injection, schedule: Q01DX009 (ip), vehicle: saline with Tween-80
[9] = dose: 100.0 mg/kg/injection, schedule: Q01DX009 (ip), vehicle: Klucel (hydroxypropylcellulose) (HPC)
[10] = dose: 200.0 mg/kg/injection, schedule: Q01DX009 (ip), vehicle: Klucel (hydroxypropylcellulose) (HPC)
[11] = dose: 400.0 mg/kg/injection, schedule: Q01DX009 (ip), vehicle: Klucel (hydroxypropylcellulose) (HPC)
[12] = dose: 100.0 mg/kg/injection, schedule: Q01DX009 (ip), vehicle: saline
[13] = dose: 200.0 mg/kg/injection, schedule: Q01DX009 (ip), vehicle: saline
[14] = dose: 400.0 mg/kg/injection, schedule: Q01DX009 (ip), vehicle: saline

Measured: T/C

O=S(=O)(Cc1ccccc1)C(Cl)Cl
inactive: dose: 75.0 mg/kg/injection, schedule: Q01DX001 (ip), vehicle: saline 96 % of control | dose: 150.0 mg/kg/injection, schedule: Q01DX001 (ip), vehicle: saline 94 % of control | dose: 300.0 mg/kg/injection, schedule: Q01DX001 (ip), vehicle: saline 96 % of control

COc1ccc(C(=S)N2CCN(c3ccccc3Cl)CC2)cc1
inactive: [1] 101 % of control | [2] 91 % of control | [3] 90 % of control

CC(=O)NC(C)(C)C#N
inactive: [4] 93 % of control | [5] 96 % of control | dose: 400.0 mg/kg/injection, schedule: Q04DX002 (ip), vehicle: Klucel (hydroxypropylcellulose) (HPC) 107 % of control

SC1c2cc(Cl)ccc2-c2c(Cl)cc(Cl)cc21 (stereo not given)
inactive: dose: 100.0 mg/kg/injection, schedule: Q01DX001 (ip), vehicle: carboxymethylcellulose (CMC) 93 % of control | dose: 200.0 mg/kg/injection, schedule: Q01DX001 (ip), vehicle: carboxymethylcellulose (CMC) 98 % of control | dose: 400.0 mg/kg/injection, schedule: Q01DX001 (ip), vehicle: carboxymethylcellulose (CMC) 117 % of control

COc1ccc(C2(c3ccccc3)OC(=O)c3ccccc32)c2ccccc12 (stereo not given)
inactive: dose: 100.0 mg/kg/injection, schedule: Q01DX001 (ip), vehicle: other 110 % of control | dose: 100.0 mg/kg/injection, schedule: Q04DX003 (ip), vehicle: other 104 % of control | dose: 200.0 mg/kg/injection, schedule: Q01DX001 (ip), vehicle: other 92 % of control | dose: 200.0 mg/kg/injection, schedule: Q04DX003 (ip), vehicle: other 100 % of control | dose: 400.0 mg/kg/injection, schedule: Q01DX001 (ip), vehicle: other 86 % of control | dose: 400.0 mg/kg/injection, schedule: Q04DX003 (ip), vehicle: other 111 % of control

CCOC(=O)C(CC(=O)c1ccccc1)C(C)=O (stereo not given)
inactive: [6] 97 % of control | [7] 93 % of control | [8] 97 % of control

O=C1C=C(c2ccccc2)OC(c2ccccc2)C1 (stereo not given)
inactive: dose: 75.0 mg/kg/injection, schedule: Q01DX009 (ip), vehicle: Klucel (hydroxypropylcellulose) (HPC) 97 % of control | dose: 150.0 mg/kg/injection, schedule: Q01DX009 (ip), vehicle: Klucel (hydroxypropylcellulose) (HPC) 99 % of control | dose: 300.0 mg/kg/injection, schedule: Q01DX009 (ip), vehicle: Klucel (hydroxypropylcellulose) (HPC) 99 % of control

NC(CS)=NCC12CC3CC(CC(C3)C1)C2
inactive: dose: 12.5 mg/kg/injection, schedule: Q04DX003 (ip), vehicle: carboxymethylcellulose (CMC) 93 % of control | dose: 25.0 mg/kg/injection, schedule: Q04DX003 (ip), vehicle: carboxymethylcellulose (CMC) 98 % of control

Cc1cc(Cl)c(Cl)cc1NC(=O)/C=C\c1ccccc1
inactive: [9] 114 % of control | dose: 100.0 mg/kg/injection, schedule: Q04DX003 (ip), vehicle: Klucel (hydroxypropylcellulose) (HPC) 91 % of control | [10] 108 % of control | dose: 200.0 mg/kg/injection, schedule: Q04DX003 (ip), vehicle: Klucel (hydroxypropylcellulose) (HPC) 94 % of control | [11] 102 % of control | dose: 400.0 mg/kg/injection, schedule: Q04DX003 (ip), vehicle: Klucel (hydroxypropylcellulose) (HPC) 97 % of control

O=C1C=CC(=O)C(SCCSC2=CC(=O)C(SCCSC3=CC(=O)C=CC3=O)=CC2=O)=C1
inactive: [1] 98 % of control | [2] 101 % of control | [3] 95 % of control

CCC(=O)OC1(c2ccccc2)CCN(CCC(O)c2ccco2)CC1 (stereo not given)
inactive: dose: 40.0 mg/kg/injection, schedule: Q01DX009 (ip), vehicle: Klucel (hydroxypropylcellulose) (HPC) 97 % of control | dose: 80.0 mg/kg/injection, schedule: Q01DX009 (ip), vehicle: Klucel (hydroxypropylcellulose) (HPC) 98 % of control | dose: 160.0 mg/kg/injection, schedule: Q01DX009 (ip), vehicle: Klucel (hydroxypropylcellulose) (HPC) 98 % of control

CC(=O)N1CC(n2nnc3c(N)ncnc32)CC1CO (stereo not given)
inactive: dose: 12.5 mg/kg/injection, schedule: Q04DX002 (ip), vehicle: saline with Tween-80 98 % of control | dose: 25.0 mg/kg/injection, schedule: Q04DX002 (ip), vehicle: saline with Tween-80 102 % of control | dose: 50.0 mg/kg/injection, schedule: Q04DX002 (ip), vehicle: saline with Tween-80 94 % of control

O=C(O)COc1nc(Cl)c(Cl)cc1Cl
inactive: [4] 107 % of control | [5] 104 % of control

COc1ccc(CCNC(=O)C2(C(C)C)OC3(O)C4CCCN4C(=O)C(C(C)C)N3C2=O)cc1OC (stereo not given)
inactive: dose: 12.5 mg/kg/injection, schedule: Q04DX003 (ip), vehicle: alcohol 98 % of control | dose: 25.0 mg/kg/injection, schedule: Q04DX003 (ip), vehicle: alcohol 97 % of control | dose: 25.0 mg/kg/injection, schedule: Q04DX003 (ip), vehicle: saline with Tween-80 98 % of control | dose: 50.0 mg/kg/injection, schedule: Q04DX003 (ip), vehicle: alcohol 104 % of control | dose: 50.0 mg/kg/injection, schedule: Q04DX003 (ip), vehicle: saline with Tween-80 114 % of control | dose: 100.0 mg/kg/injection, schedule: Q04DX003 (ip), vehicle: alcohol 101 % of control | dose: 100.0 mg/kg/injection, schedule: Q04DX003 (ip), vehicle: saline with Tween-80 98 % of control | dose: 200.0 mg/kg/injection, schedule: Q04DX003 (ip), vehicle: saline with Tween-80 111 % of control

CC(C)OCCCO
inactive: [12] 87 % of control | [13] 92 % of control | [14] 97 % of control

CCCCCCCCCCCCCCCCC(=O)OCC
inactive: dose: 75.0 mg/kg/injection, schedule: Q01DX001 (ip), vehicle: carboxymethylcellulose (CMC) 91 % of control

O=C(O)CSC(CC(=O)O)C(=O)O (stereo not given)
inactive: [12] 107 % of control | [13] 108 % of control | [14] 103 % of control

CCCCCCCCCC/C=N\N=C(N)N
inactive: dose: 15.0 mg/kg/injection, schedule: Q01DX Z (ip), vehicle: other 107 % of control | dose: 15.0 mg/kg/injection, schedule: Q01DX Z (oral), vehicle: carboxymethylcellulose (CMC) 96 % of control | dose: 30.0 mg/kg/injection, schedule: Q01DX Z (ip), vehicle: other 97 % of control | dose: 30.0 mg/kg/injection, schedule: Q01DX Z (oral), vehicle: carboxymethylcellulose (CMC) 103 % of control | dose: 60.0 mg/kg/injection, schedule: Q01DX Z (oral), vehicle: carboxymethylcellulose (CMC) 96 % of control | dose: 120.0 mg/kg/injection, schedule: Q01DX Z (oral), vehicle: carboxymethylcellulose (CMC) 103 % of control

COC1OC2COc3ccccc3OC2C(NC(N)=S)C1OC (stereo not given)
inactive: dose: 100.0 mg/kg/injection, schedule: Q01DX009 (ip), vehicle: gum acacia 107 % of control | dose: 200.0 mg/kg/injection, schedule: Q01DX009 (ip), vehicle: gum acacia 102 % of control | dose: 400.0 mg/kg/injection, schedule: Q01DX009 (ip), vehicle: gum acacia 93 % of control

Cc1cccc(-c2nc(N)nc(N)n2)c1C
inactive: [6] 97 % of control | [7] 101 % of control | [8] 101 % of control

O=C(Nc1ccc(Cl)cc1Cl)Sc1ccc(Cl)cc1
inactive: [9] 91 % of control | [10] 96 % of control | [11] 88 % of control

O=C(Nc1cccc(C(F)(F)F)c1)Nc1c(Oc2ccc(Cl)c(Cl)c2)ccc(Cl)c1S(=O)(=O)O
inactive: dose: 100.0 mg/kg/injection, schedule: Q04DX003 (ip), vehicle: saline 103 % of control | dose: 200.0 mg/kg/injection, schedule: Q04DX003 (ip), vehicle: saline 94 % of control

Source: PubChem BioAssay AID248 (DTP/NCI, 2004)
